According to ChEMBL document CHEMBL1201862, “PubChem BioAssay data set” (2004):
Activity calls are given as the source filed them.

Key:
BJ [1] = assay: BJ-TERT-LT-ST fibroblast viability loss – cell-based, RAS-independent, luminescence, dose response (AID 1935); assay type: functional; conditions: Homo sapiens;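 also: BJ fibroblasts immortalized with TERT plus LT and ST oncogenes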
[2] = DRD fibroblast viability loss – cell-based, non-viral oncogenic, luminescence, dose response (AID 1934); assay type: functional; conditions: Homo sapiens
BJ [3] = assay: cells; assay type: functional, cell-based; conditions: Homo sapiens
BJ [4] = assay: BJ-TERT fibroblast viability loss – cell-based, RAS-independent, luminescence, dose response (AID 1933); assay type: functional; conditions: Homo sapiens
[5] = biological target: T1, Short transient receptor potential channel 4 (Mus musculus, UniProt Q9QUQ5); assay: block of DAMGO-driven TRPC4 calcium entry – cell-based, HEK293 TRPC4/mu-opioid, Fluo-4 calcium, dose response (AID 434942); assay type: functional;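 also: potency of inhibitors blocking the TRPC4 calcium response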
T1 sequence (Q9QUQ5 whole entry): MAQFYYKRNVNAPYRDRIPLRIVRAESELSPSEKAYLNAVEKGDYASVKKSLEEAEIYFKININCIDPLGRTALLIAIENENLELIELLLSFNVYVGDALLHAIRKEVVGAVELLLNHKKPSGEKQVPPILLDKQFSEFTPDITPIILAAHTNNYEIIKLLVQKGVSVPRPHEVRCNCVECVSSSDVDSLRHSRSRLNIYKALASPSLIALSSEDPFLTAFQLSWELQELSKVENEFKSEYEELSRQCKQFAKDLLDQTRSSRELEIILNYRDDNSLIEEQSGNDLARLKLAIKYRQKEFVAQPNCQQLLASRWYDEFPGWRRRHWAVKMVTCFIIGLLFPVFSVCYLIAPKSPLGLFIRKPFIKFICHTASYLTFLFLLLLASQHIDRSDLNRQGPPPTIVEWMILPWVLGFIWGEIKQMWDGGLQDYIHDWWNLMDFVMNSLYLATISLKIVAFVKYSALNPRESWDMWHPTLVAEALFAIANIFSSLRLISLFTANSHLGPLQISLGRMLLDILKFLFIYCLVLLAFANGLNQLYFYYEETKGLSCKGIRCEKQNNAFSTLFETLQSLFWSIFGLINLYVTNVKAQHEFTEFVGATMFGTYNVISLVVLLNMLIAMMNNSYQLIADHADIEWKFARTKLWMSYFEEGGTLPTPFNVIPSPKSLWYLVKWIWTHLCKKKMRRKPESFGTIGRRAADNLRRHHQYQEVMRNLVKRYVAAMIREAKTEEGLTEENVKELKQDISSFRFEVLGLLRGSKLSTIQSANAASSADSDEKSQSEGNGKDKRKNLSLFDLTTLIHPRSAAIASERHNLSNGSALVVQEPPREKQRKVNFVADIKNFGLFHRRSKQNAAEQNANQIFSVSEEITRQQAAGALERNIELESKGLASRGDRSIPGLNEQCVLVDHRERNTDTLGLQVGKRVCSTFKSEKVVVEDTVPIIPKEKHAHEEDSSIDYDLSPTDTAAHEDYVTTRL

cells = assay type: functional
[6] = HepG2 cell cytotoxicity, dose response, cytotoxicity control for non-replicating M. tuberculosis project (AID 489018); assay type: functional; conditions: Mycobacterium tuberculosis
[7] = Vero E6 cell cytotoxicity, dose response, cytotoxicity control for non-replicating M. tuberculosis project, secondary assay (AID 492998); assay type: functional, VeroE6; conditions: Vero C1008
[8] = THP-1 cell cytotoxicity, dose response, cytotoxicity control for non-replicating M. tuberculosis project (AID 489025); assay type: functional
Vero = assay: cells; assay type: functional; conditions: Chlorocebus sabaeus
[9] = tested on: Streptococcus sp. 'group A'; assay: Streptococcus pyogenes SK(-)GAS viability under kanamycin – luminescence, BacTiterGlo, confirmation, counter-screen for streptokinase expression inhibitor project, dose response (AID 1900); assay type: functional, organism-based
Streptococcus = assay: GAS UMAA2166 growth inhibition – luminescence, BacTiterGlo, counter-screen for streptokinase expression inhibitor project, dose response (AID 1915); assay type: functional, organism-based;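 also: potency for reduction of bacterial viability or growth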
Leucine aminopeptidase = biological target: T2, Leucine aminopeptidase (Plasmodium falciparum 3D7, UniProt Q8IL11); assay: P. falciparum M17LAP inhibitors, primary screen, biochemical, fluorogenic H-Leu-NHMec substrate, 1536-well (AID 1619); assay type: functional
T2 sequence (Q8IL11 whole entry): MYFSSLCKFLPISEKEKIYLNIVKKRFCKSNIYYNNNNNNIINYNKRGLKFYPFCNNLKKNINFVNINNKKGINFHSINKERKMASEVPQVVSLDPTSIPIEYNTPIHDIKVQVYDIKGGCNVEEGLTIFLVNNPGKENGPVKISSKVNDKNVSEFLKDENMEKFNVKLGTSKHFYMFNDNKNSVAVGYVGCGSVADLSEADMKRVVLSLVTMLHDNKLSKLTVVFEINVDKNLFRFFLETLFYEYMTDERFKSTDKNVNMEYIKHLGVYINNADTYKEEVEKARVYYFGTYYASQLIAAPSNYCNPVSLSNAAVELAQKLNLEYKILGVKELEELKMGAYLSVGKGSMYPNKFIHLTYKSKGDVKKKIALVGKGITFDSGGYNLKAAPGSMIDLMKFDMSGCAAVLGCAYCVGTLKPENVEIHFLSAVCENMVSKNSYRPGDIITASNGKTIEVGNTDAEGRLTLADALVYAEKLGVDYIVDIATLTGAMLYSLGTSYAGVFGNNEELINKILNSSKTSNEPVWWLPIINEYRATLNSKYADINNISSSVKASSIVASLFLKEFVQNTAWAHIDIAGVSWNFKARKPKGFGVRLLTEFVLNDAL

[10] = biological target: T3, Zinc finger protein mex-5 (Caenorhabditis elegans, UniProt Q9XUB2); assay: potency of MEX-5 RNA-binding blockers – biochemical, C. elegans, fluorescence polarization, dose response (AID 1960)
T3 sequence (Q9XUB2 whole entry): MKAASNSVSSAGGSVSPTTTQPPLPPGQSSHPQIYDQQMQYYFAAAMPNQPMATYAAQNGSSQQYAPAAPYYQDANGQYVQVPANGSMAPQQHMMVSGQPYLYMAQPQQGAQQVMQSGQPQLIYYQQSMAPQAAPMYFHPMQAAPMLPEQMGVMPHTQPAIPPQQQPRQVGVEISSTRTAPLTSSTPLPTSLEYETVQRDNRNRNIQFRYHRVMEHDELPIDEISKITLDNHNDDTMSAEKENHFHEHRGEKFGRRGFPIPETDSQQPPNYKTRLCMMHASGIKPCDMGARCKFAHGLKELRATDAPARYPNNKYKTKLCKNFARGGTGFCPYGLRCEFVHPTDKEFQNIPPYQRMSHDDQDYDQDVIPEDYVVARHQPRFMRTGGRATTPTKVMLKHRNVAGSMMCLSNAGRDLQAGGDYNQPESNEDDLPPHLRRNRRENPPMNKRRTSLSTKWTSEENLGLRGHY

[11] = biological target: T4, RNA-binding protein pos-1 (Caenorhabditis elegans, UniProt G5EF15); assay: disruptors of C. elegans POS-1 RNA interaction – biochemical, fluorescence polarization, dose response (AID 1964);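 also: purified POS-1 fused to maltose binding protein made in E. coli; potency of compounds blocking POS-1 binding to fluorescent RNA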
T4 sequence (G5EF15 whole entry): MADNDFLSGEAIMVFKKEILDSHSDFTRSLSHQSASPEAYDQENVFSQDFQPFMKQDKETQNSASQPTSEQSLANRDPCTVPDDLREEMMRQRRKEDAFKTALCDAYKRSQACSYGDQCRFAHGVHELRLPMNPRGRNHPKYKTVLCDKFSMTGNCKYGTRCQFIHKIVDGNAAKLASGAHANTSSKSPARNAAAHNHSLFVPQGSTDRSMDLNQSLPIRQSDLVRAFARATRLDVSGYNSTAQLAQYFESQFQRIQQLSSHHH

[12] = biological target: Heat shock protein HSP 90-alpha (Homo sapiens, UniProt P07900); assay type: functional, organism-based
Genome polyprotein = Genome polyprotein (dengue virus type 2, UniProt P29990); assay: flavivirus cap methylation enzyme inhibition – biochemical, confirmation dose response, primary screen (AID 588689); assay type: functional
[13] = biological target: FAD-linked sulfhydryl oxidase ALR (Homo sapiens, UniProt P55789); assay: ALR-catalysed DTT oxidation blockers – biochemical, H2O2 detection, luminescence, cherry-pick, dose response (AID 493248)
Cytochrome P450 2C19 = Cytochrome P450 2C19 (Homo sapiens, UniProt P33261); assay: Cytochrome panel assay with activity outcomes. Panel member name: p450-cyp2c19 Compounds with AC50 equal or less than 10 uM are considered active; assay type: functional; conditions: read-out: AC50
Cytochrome P450 3A4 = Cytochrome P450 3A4 (Homo sapiens, UniProt P08684);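 also: CYP3A4 tested as one member of a cytochrome P450 panel screen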
Streptokinase A = biological target: T5, Streptokinase A (Streptococcus pyogenes serotype M1, UniProt P10520); assay: viability-normalized secreted streptokinase activity reduction – plasminogen activation absorbance, OD405, dose response (AID 1914); assay type: functional, Streptococcus pyogenes M1 GAS;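 also: secreted streptokinase activity via plasminogen activation per viability signal from cell pellet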
T5 sequence (P10520 whole entry): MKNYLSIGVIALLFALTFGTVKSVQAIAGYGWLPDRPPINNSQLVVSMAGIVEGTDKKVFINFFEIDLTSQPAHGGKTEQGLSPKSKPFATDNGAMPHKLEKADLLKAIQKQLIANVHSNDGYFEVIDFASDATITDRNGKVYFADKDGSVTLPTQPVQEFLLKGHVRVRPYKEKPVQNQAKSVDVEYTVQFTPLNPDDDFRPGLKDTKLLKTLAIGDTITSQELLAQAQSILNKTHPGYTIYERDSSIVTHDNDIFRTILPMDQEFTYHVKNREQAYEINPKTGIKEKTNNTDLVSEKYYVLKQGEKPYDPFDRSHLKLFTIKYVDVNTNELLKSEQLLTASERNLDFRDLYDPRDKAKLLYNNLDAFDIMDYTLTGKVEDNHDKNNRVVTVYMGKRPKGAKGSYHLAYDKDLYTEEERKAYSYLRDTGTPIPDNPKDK

Chain of Genome polyprotein (P29990 2492-3391 limits assumed): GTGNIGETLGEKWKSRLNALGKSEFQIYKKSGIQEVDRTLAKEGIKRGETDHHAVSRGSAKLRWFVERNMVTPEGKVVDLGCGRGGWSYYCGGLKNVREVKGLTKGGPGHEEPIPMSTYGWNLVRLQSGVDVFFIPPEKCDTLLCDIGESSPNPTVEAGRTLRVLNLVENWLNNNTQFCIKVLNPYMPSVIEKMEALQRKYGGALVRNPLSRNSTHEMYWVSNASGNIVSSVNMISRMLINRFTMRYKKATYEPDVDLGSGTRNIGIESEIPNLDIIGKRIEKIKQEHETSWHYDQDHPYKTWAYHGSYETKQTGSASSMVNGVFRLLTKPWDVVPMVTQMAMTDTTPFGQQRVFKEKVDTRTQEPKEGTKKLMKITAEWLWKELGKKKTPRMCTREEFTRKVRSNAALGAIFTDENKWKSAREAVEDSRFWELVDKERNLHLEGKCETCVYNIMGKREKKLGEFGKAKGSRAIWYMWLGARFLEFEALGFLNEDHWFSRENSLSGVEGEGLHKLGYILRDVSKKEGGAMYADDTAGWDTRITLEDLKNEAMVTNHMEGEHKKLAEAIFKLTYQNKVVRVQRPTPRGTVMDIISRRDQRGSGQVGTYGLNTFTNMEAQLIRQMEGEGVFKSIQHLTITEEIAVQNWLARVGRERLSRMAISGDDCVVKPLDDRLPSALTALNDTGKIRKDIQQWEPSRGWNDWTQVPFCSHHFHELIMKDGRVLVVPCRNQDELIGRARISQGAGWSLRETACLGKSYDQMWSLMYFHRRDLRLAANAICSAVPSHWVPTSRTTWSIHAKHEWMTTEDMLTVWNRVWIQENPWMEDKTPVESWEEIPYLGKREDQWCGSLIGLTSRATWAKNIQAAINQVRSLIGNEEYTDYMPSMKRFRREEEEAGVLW
Chain of Cytochrome P450 2C19 (P33261 whole entry): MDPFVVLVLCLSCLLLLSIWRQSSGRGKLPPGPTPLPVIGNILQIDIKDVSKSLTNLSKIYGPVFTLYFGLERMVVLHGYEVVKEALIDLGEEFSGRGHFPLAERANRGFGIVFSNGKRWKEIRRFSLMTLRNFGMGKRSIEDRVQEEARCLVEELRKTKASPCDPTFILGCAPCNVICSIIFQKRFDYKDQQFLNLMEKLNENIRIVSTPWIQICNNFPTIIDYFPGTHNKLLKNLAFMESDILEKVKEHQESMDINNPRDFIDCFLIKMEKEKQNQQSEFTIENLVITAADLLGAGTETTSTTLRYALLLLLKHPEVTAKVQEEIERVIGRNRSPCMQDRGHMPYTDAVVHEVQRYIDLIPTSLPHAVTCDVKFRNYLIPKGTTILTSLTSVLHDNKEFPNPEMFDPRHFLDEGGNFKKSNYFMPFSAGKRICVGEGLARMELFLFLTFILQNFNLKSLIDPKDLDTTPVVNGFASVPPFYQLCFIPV
Chain of Cytochrome P450 3A4 (P08684 whole entry): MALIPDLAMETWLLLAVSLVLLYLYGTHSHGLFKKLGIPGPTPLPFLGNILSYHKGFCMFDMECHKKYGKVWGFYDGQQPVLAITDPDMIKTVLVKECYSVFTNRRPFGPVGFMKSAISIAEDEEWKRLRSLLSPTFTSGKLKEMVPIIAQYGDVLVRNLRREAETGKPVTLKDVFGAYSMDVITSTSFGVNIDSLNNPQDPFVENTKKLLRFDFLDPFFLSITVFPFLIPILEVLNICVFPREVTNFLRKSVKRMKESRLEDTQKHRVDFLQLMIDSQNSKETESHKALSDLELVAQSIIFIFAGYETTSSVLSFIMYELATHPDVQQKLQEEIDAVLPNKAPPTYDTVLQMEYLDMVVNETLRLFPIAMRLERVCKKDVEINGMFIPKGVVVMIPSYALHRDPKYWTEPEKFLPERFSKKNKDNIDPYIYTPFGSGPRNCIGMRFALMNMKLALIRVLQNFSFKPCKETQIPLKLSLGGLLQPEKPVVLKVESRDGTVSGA
Chain of FAD-linked sulfhydryl oxidase ALR (P55789 whole entry): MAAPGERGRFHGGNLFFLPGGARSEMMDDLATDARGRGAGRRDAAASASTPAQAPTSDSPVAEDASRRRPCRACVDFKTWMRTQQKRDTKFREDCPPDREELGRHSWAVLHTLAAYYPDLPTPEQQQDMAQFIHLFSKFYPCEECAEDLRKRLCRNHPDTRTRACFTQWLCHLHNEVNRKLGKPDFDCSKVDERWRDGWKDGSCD

C=CCNC(=O)c1ccc(NC(=O)C2=CSCCO2)cc1
EC50 (BJ [1]): > 150 µM (not active) | EC50 [2]: 60.9 µM (active) | EC50 (BJ [3]): 111 µM (active) | EC50 (BJ [4]): 24.8 µM (active)

CCOC(=O)C1(CCc2ccccc2)CCN(Cc2ccccn2)CC1
EC50 [5]: 4.22 µM (active) | IC50 (cells): 3.96 µM (active)

CC(C)Sc1nc2sc3c(c2c2nnc(SCC(=O)NCc4ccco4)n12)CCCC3
EC50 [5]: 3.76 µM (active)

COc1ccc(C(=O)Oc2c(CN3CCOCC3)cc(Cl)c3cccnc23)cc1OC
CC50 [6]: 15 µM (active) | CC50 [7]: 8.82 µM (active) | CC50 [8]: 12.2 µM (active) | IC50 (cells): 34.6 µM (active)

Cc1ccc(OCC(=O)NNC(=S)NC(=O)c2ccc(Br)o2)c(C)c1
CC50 (Vero): > 25 µM (active) | EC50 [9]: < 0.06 µM (active) | EC50 [5]: 13.3 µM (active) | EC50 (Streptococcus): 1.33 µM (active)

CC1=C(C)CC(C(=O)Nc2cccc(Cl)c2)C(C(=O)O)C1 (centres undefined)
IC50 (Leucine aminopeptidase): 2.38 µM (active)

CCCCN1C(=O)/C(=C2/Sc3ccc(OC)cc3N2CC)SC1=S
EC50 [10]: > 300 µM (inconclusive) | EC50 [11]: > 300 µM (inconclusive)

COc1ccc(S(=O)(=O)NC2CC3CCC2C3)cc1Br (centres undefined)
AC50 [12]: 5.25 µM (active)

CC1(C)CC(=O)C2=C(C1)OC(N)=C(C#N)C21C(=O)N2CCCc3cccc1c32 (centres undefined)
EC50 [10]: > 300 µM (not active) | EC50 [11]: > 300 µM (not active)

COc1ccccc1N1C(=O)NC(=O)/C(=C/c2ccc3c(c2)Cc2ccccc2-3)C1=O
IC50 (Genome polyprotein): 59.4 µM (active)

CN1C(=O)/C(=C/c2cccc([N+](=O)[O-])c2)C(=O)N1c1ccccc1
AC50 [13]: 0.533 µM (active) | IC50 (Genome polyprotein): 26.3 µM (active)

Clc1ccc(Nc2nc[nH]n2)cc1
IC50 (Leucine aminopeptidase): 1.53 µM (active) | AC50 (Cytochrome P450 2C19): 14.1 µM (inconclusive) | AC50 (Cytochrome P450 3A4): 31.6 µM (inconclusive)

Oc1c2c(nc3c(-c4ccc(Cl)cc4)cnn13)CCC2
EC50 (Streptokinase A): > 150 µM (not active) | CC50 [6]: 12.7 µM (active) | CC50 [7]: 10.7 µM (active) | EC50 [9]: 4.33 µM (active) | CC50 [8]: 5.23 µM (active) | EC50 (Streptococcus): 12.3 µM (active) | IC50 (cells): 12.2 µM (active)
